Measured values taken from PMC11195807, “Development of a multi-targeted chemotherapeutic approach based on G-quadruplex stabilisation and carbonic anhydrase inhibition” (Journal of Enzyme Inhibition and Medicinal Chemistry, 2024).

Key:
hCA I = target: T1, hCA I (Homo sapiens, UniProt P00915); test: stopped-flow CO2 hydrase assay, hCA I; type: biochemical
T1 construct: made in house
Method: (§1) An Applied Photophysics stopped-flow instrument has been used for assaying the CA-catalysed CO2 hydration activity, as reported earlier. The enzyme concentrations were in the range 5–12 nM. All hCA isoforms were recombinant proteins, being obtained in-house as reported earlier.

c-Kit1 = test: CD melting experiments, c-Kit1 GQ; type: binding; details: for ΔT1/2 c-Kit1: 2 molar equiv compound, T1/2 of DNA alone 55.0 °C; for ΔΔT1/2 c-Kit1: ΔT1/2 of compound minus ΔT1/2 of berberine, 2 molar equiv
Description: (§2) The 21 synthesised MTDLs were screened for their ability to bind to and stabilise DNA GQ-forming sequences, compared to berberine, by CD experiments. Indeed, circular dichroism has shown to be outstandingly useful and informative for noncanonical nucleic acid secondary structures. For this purpose, a G-rich 23-nucleotide truncation (23-nt) of the human telomeric sequence (Tel23) and two G-rich motifs from the promoter regions of c-KIT (c-Kit1) and c-MYC (c-Myc) oncogenes were employed. First, the overall topology adopted by each DNA sequence in K^+-containing buffer was verified by CD spectra. […] GQ conformation (Figure S1, Supporting Information). On the other hand, c-Kit1 and c-Myc sequences adopted a parallel GQ conformation, showing a distinctive positive band at around 260 nm and a negative one at ∼240 nm in their CD spectra (Figures S2 and S3, Supporting Information).
(§3) Afterwards, the GQ-stabilising properties of the molecules were assessed by CD melting experiments, measuring the differences in the apparent melting temperatures of the DNA in the presence and absence of compounds (ΔT1/2) (Figures S4–S6 and Table S2, Supporting Information). […] This could be explained by considering the higher accessibility of the external G-tetrads in the case of parallel GQs compared to the hybrid one[52], which would allow the additional CAI moiety of conjugated compounds to be better accommodated in the binding site. […] . […] .

hCA XII = target: T2, hCA XII (Homo sapiens, UniProt O43570); test: stopped-flow CO2 hydrase assay, hCA XII; type: biochemical; details: for Selectivity index (SI) I/XII: hCA XII over hCA I; for Selectivity index (SI) II/XII: hCA XII over hCA II; for Ki: mean ± SEM of three assays
T2 construct: made in house
T2 sequence (O43570 25-354): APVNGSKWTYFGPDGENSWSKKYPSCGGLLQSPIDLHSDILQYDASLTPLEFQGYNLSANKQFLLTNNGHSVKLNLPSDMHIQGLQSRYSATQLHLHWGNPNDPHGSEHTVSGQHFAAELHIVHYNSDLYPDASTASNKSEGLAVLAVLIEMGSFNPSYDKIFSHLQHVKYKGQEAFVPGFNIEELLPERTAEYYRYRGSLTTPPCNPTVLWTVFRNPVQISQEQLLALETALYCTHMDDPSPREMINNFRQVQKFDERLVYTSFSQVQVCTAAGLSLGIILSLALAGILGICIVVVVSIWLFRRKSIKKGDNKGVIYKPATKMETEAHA
Description: (§4) An Applied Photophysics stopped-flow instrument has been used for assaying the CA-catalysed CO2 hydration activity, as reported earlier. […] All hCA isoforms were recombinant proteins, being obtained in-house as reported earlier.

hCA IX = target: T3, hCA IX (Homo sapiens, UniProt Q16790); test: stopped-flow CO2 hydrase assay, hCA IX; type: biochemical; details: for Selectivity index (SI) I/IX: hCA IX over hCA I; for Selectivity index (SI) II/IX: hCA IX over hCA II; for Ki: mean ± SEM of three assays
T3 construct: made in house
Description: as §4

Tel23 = test: CD melting experiments, Tel23 GQ; type: binding, human; details: for ΔT1/2 Tel23: 2 molar equiv compound, T1/2 of DNA alone 53.5 °C; for ΔΔT1/2 Tel23: ΔT1/2 of compound minus ΔT1/2 of berberine, 2 molar equiv
Description: as §2, §3

c-Myc = test: CD melting experiments, c-Myc GQ; type: binding; details: for ΔT1/2 c-Myc: 1 molar equiv compound, T1/2 of DNA alone 70.0 °C; for ΔΔT1/2 c-Myc: ΔT1/2 of compound minus ΔT1/2 of berberine, 1 molar equiv
Description: as §2, §3

hCA II = target: T4, hCA II (Homo sapiens, UniProt P00918); test: stopped-flow CO2 hydrase assay, hCA II; type: biochemical
T4 construct: made in house
Description: . The structure-activity relationship is discussed separately for the two compound subsets. Another code pattern is included for the MTDLs in Table 1, which indicates the derivative CAI type (sulphonamide, S or coumarin, C) and the number of atoms in the spacers connecting either berberine and the triazole (carbon atoms) or the triazole and the benzenesulfonamide/coumarin scaffolds (carbon or oxygen atoms).
as §1

Hairpin = test: CD melting experiments, hairpin DNA duplex; details: 2 molar equiv compound, T1/2 of DNA alone 66.0 °C
Method: To evaluate the possible binding and stabilisation of double-stranded DNA, a 27-nt long hairpin-forming sequence (Hairpin) was employed.
In particular, the following DNA sequences were synthesised and employed for the experiments: d([sequence]) (c-Kit1), d([sequence]) (c-Myc), d([sequence]) (Tel23), and d([sequence]) (Hairpin). Oligonucleotides were dissolved in the proper buffer and their concentration was measured by UV absorption at 90 °C, as previously reported[80]^,[81]. To achieve the correct folding of the sequences, the DNA solutions were heated in a water bath at 90 °C for 5 min, and then allowed to cool slowly to room temperature overnight. Then, DNA samples were stored at 4 °C for 24 h, before data acquisition.
The samples were prepared by dissolving the oligonucleotides in 5 mM KH2PO4/K2HPO4 buffer (pH 7.0) containing 20 mM KCl (or LiCl in the case of c-Myc because of its high thermal stability). DNA concentrations of 20 µM for GQs and 30 µM for Hairpin were used. For each compound, a 10 mM stock solution in 100% DMSO was prepared. […] CD spectra were acquired at 20 and 100 °C, in the 230–320 nm wavelength range, averaged over three scans and subtracted of the buffer baseline. The scanning speed was set to 100 nm/min, with a 0.5 s response time, and 1 nm bandwidth. CD melting experiments were carried out in the 20–100 °C temperature range, with 1 °C/min heating rate, by following changes in the CD signal at the wavelengths of the maximum CD intensity (i.e. 263 nm for c-Kit1 and c-Myc, and 290 nm for Tel23). As for Hairpin, CD melting curves were recorded by following the changes in the CD signal at 252 nm (the wavelength of the minimum CD intensity). CD melting curves were normalised between 0 and 1. […] The ΔT1/2 values correspond to the difference in the T1/2 values of the nucleic acid structures in the presence and absence of the compounds. All experiments were performed in duplicate, and the reported values are the mean of the two measurements.

[1] = sulphonamides, inhibitor-enzyme incubation 15 min, mean ± SEM of three assays
[2] = sulphonamides, inhibitor-enzyme incubation 15 min
[3] = coumarins, inhibitor-enzyme incubation 6 h

T1 sequence (P00915 whole entry): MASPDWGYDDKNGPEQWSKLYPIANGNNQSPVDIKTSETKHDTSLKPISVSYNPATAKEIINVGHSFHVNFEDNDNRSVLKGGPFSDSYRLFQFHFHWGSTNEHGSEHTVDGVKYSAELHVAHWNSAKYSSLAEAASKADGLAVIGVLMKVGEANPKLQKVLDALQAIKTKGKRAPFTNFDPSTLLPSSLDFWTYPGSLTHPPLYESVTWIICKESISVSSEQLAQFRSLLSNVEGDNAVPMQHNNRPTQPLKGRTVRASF

| Ki (hCA I; [1]) | Selectivity index (SI) I/XII (hCA XII) | Selectivity index (SI) II/XII (hCA XII) | Ki (hCA XII; [2]) | Selectivity index (SI) I/IX (hCA IX) | Selectivity index (SI) II/IX (hCA IX) | Ki (hCA IX; [2]) | Ki (hCA II; [1]) | Ki (hCA I; [3]) | Ki (hCA XII; [3]) | Ki (hCA IX; [3]) | Ki (hCA II; [3]) | Structure (SMILES) | ΔT1/2 c-Kit1 (c-Kit1) | ΔΔT1/2 c-Kit1 (c-Kit1) | ΔT1/2 Tel23 (Tel23) | ΔΔT1/2 Tel23 (Tel23) | ΔT1/2 c-Myc (c-Myc) | ΔΔT1/2 c-Myc (c-Myc) | ΔT1/2 Hairpin (Hairpin) | other results |
| --- | --- | --- | --- | --- | --- | --- | --- | --- | --- | --- | --- | --- | --- | --- | --- | --- | --- | --- | --- | --- |
| 940 ± 52.1 nM | 213.7 | 1.4 | 4.4 nM | 1446 | 9.2 | 0.65 ± 0.05 nM | 6 nM |  |  |  |  | COc1ccc2cc3[n+](cc2c1OCCn1cc(COc2ccc(S(N)(=O)=O)cc2)nn1)CCc1cc2c(cc1-3)OCO2 [Compound 27, 10-Methoxy-9–(2-(4-((4-sulfamoylphenoxy)methyl)-1H-1,2,3-triazol-1-yl)ethoxy)-5,6-dihydro-[1,3]dioxolo[4,5-g]isoquinolino[3,2-a]isoquinolin-7-ium hexafluorophosphate] | 18.5 °C | 5.5 °C | 7.5 °C | −2.0 °C | 18.5 °C | 6.5 °C | -0.5 °C |  |
| 872 ± 55.9 nM | 62.3 | 4.8 | 14 ± 1 nM | 1194 | 91.5 | 0.73 ± 0.04 nM | 66.8 ± 3.9 nM |  |  |  |  | COc1ccc2cc3[n+](cc2c1OCCCn1cc(-c2ccc(S(N)(=O)=O)cc2)nn1)CCc1cc2c(cc1-3)OCO2 [Compound 28, 10-Methoxy-9–(3-(4–(4-sulfamoylphenyl)-1H-1,2,3-triazol-1-yl)propoxy)-5,6-dihydro-[1,3]dioxolo[4,5-g]isoquinolino[3,2-a]isoquinolin-7-ium hexafluorophosphate] | 16.5 °C | 3.5 °C | 6.0 °C | −3.5 °C |  | >13.0 °C | -2.0 °C | ΔΔT1/2 c-Myc (c-Myc; listed as S-3,0): > 13.0 °C |
| 219 ± 16.2 nM | 75.7 | 14.2 | 2.9 ± 0.1 nM | 406.5 | 76.1 | 0.54 ± 0.03 nM | 41.1 ± 2.7 nM |  |  |  |  | COc1ccc2cc3[n+](cc2c1OCCCCCn1cc(COc2ccc(S(N)(=O)=O)cc2)nn1)CCc1cc2c(cc1-3)OCO2 [Compound 33, 10-Methoxy-9-((5–(4-((4-sulfamoylphenoxy)methyl)-1H-1,2,3-triazol-1-yl)pentyl)oxy)-5,6-dihydro-[1,3]dioxolo[4,5-g]isoquinolino[3,2-a]isoquinolin-7-ium hexafluorophosphate] | 18.5 °C | 5.5 °C | 10.5 °C | 1.0 °C | 12.5 °C | 0.5 °C | +0.2 °C |  |
|  | > 529.1 | > 529.1 |  | > 289.9 | > 289.9 |  |  | > 100000 nM | 18.9 ± 0.9 nM | 34.5 ± 2.4 nM | > 100000 nM | COc1ccc2cc3[n+](cc2c1OCCCn1cc(CCOc2ccc4ccc(=O)oc4c2)nn1)CCc1cc2c(cc1-3)OCO2 [Compound 35, 10-Methoxy-9–(3-(4–(2-((2-oxo-2H-chromen-7-yl)oxy)ethyl)-1H-1,2,3-triazol-1-yl)propoxy)-5,6-dihydro-[1,3]dioxolo[4,5-g]isoquinolino[3,2-a]isoquinolin-7-ium hexafluorophosphate] | 18.5 °C | 5.5 °C | 8.0 °C | −1.5 °C | 18.5 °C | 6.5 °C | +2.0 °C |  |
|  | > 352.1 | > 352.1 |  | > 169.8 | > 169.8 |  |  | > 100000 nM | 28.4 ± 1.7 nM | 58.9 ± 3.9 nM | > 100000 nM | COc1ccc2cc3[n+](cc2c1OCCCn1cc(CCCOc2ccc4ccc(=O)oc4c2)nn1)CCc1cc2c(cc1-3)OCO2 [Compound 36, 10-Methoxy-9–(3-(4–(3-((2-oxo-2H-chromen-7-yl)oxy)propyl)-1H-1,2,3-triazol-1-yl)propoxy)-5,6-dihydro-[1,3]dioxolo[4,5-g]isoquinolino[3,2-a]isoquinolin-7-ium hexafluorophosphate] | 17.0 °C | 4.0 °C | 12.5 °C | 3.0 °C | 15.0 °C | 3.0 °C | +0.5 °C |  |
| 3670 ± 22 nM | 148.0 | 3.6 | 24.8 ± 1.3 nM | 941.1 | 23.1 | 3.9 ± 0.2 nM | 90.1 ± 5.6 nM |  |  |  |  | COc1ccc2cc3[n+](cc2c1OCc1cn(-c2cccc(S(N)(=O)=O)c2)nn1)CCc1cc2c(cc1-3)OCO2 [Compound 40, 10-Methoxy-9-((1–(3-sulfamoylphenyl)-1H-1,2,3-triazol-4-yl)methoxy)-5,6-dihydro-[1,3]dioxolo[4,5-g]isoquinolino[3,2-a]isoquinolin-7-ium hexafluorophosphate] | 16.0 °C | 3.0 °C | 5.5 °C | −4.0 °C |  | >13.0 °C | +0.2 °C | ΔΔT1/2 c-Myc (c-Myc; listed as S-1,0m): > 13.0 °C |

| Structure (SMILES) | Ki (hCA I; [1]) | Selectivity index (SI) I/XII (hCA XII) | Selectivity index (SI) II/XII (hCA XII) | Ki (hCA XII; [2]) | Selectivity index (SI) I/IX (hCA IX) | Selectivity index (SI) II/IX (hCA IX) | Ki (hCA IX; [2]) | Ki (hCA II; [1]) | Ki (hCA I; [3]) | Ki (hCA XII; [3]) | Ki (hCA IX; [3]) | Ki (hCA II; [3]) | ΔT1/2 c-Kit1 (c-Kit1) | ΔΔT1/2 c-Kit1 (c-Kit1) | ΔT1/2 Tel23 (Tel23) | ΔΔT1/2 Tel23 (Tel23) | ΔT1/2 c-Myc (c-Myc) | ΔΔT1/2 c-Myc (c-Myc) | ΔT1/2 Hairpin (Hairpin) | other results |
| --- | --- | --- | --- | --- | --- | --- | --- | --- | --- | --- | --- | --- | --- | --- | --- | --- | --- | --- | --- | --- |
| COc1ccc2cc3[n+](cc2c1OCCCCn1cc(COc2ccc(S(N)(=O)=O)cc2)nn1)CCc1cc2c(cc1-3)OCO2 [Compound 31, 10-Methoxy-9–(4-(4-((4-sulfamoylphenoxy)methyl)-1H-1,2,3-triazol-1-yl)butoxy)-5,6-dihydro-[1,3]dioxolo[4,5-g]isoquinolino[3,2-a]isoquinolin-7-ium hexafluorophosphate] | 916 ± 57.9 nM | 127.2 | 9.9 | 7.2 ± 0.5 nM | 1308 | 102.1 | 0.71 ± 0.04 nM | 71.5 ± 5.3 nM |  |  |  |  | 15.5 °C | 2.5 °C | 8.0 °C | −1.5 °C | 13.0 °C | 1.0 °C | +0.2 °C |  |
| COc1ccc2cc3[n+](cc2c1OCCCCn1cc(CCOc2ccc4ccc(=O)oc4c2)nn1)CCc1cc2c(cc1-3)OCO2 [Compound 38, 10-Methoxy-9–(4-(4–(2-((2-oxo-2H-chromen-7-yl)oxy)ethyl)-1H-1,2,3-triazol-1-yl)butoxy)-5,6-dihydro-[1,3]dioxolo[4,5-g]isoquinolino[3,2-a]isoquinolin-7-ium hexafluorophosphate] |  | > 598.8 | > 598.8 |  | > 332.2 | > 332.2 |  |  | > 100000 nM | 16.7 ± 1.2 nM | 30.1 ± 1.8 nM | > 100000 nM | 17.5 °C | 4.5 °C | 7.5 °C | −2.0 °C | 15.0 °C | 3.0 °C | -2.0 °C |  |
